# According to ChEMBL document CHEMBL1909046, “DrugMatrix in vitro pharmacology data”:
# Experiments:
# [1] = biological target: T1, Alpha-2A adrenergic receptor (Homo sapiens, UniProt P08913); type: cell membranes, Sf9, Membrane; note: in other assays of this panel Not Active means under 50% inhibition at 10 µM
# T1 sequence (P08913 whole entry): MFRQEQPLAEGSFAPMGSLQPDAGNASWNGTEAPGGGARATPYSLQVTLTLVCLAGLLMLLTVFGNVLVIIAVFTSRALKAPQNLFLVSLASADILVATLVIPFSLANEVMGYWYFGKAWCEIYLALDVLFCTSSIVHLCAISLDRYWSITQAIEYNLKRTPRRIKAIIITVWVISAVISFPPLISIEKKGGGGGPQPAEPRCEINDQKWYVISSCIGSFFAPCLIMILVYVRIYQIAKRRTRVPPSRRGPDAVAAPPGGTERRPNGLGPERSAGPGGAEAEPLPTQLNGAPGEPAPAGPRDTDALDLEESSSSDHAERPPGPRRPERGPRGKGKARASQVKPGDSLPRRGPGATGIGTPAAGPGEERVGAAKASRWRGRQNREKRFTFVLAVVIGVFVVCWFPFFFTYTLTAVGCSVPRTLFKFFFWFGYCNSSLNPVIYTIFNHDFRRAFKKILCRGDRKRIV
# [2] = biological target: 5-hydroxytryptamine receptor 6 (Homo sapiens, UniProt P50406); type: cell membranes, HeLa, Membrane; note: in other assays of this panel Not Active means under 50% inhibition at 10 µM
# [3] = biological target: T2, Alpha-1D adrenergic receptor (Homo sapiens, UniProt P25100); type: cell membranes, HEK293, Membrane; note: in other assays of this panel Not Active means under 50% inhibition at 10 µM
# T2 sequence (P25100 whole entry): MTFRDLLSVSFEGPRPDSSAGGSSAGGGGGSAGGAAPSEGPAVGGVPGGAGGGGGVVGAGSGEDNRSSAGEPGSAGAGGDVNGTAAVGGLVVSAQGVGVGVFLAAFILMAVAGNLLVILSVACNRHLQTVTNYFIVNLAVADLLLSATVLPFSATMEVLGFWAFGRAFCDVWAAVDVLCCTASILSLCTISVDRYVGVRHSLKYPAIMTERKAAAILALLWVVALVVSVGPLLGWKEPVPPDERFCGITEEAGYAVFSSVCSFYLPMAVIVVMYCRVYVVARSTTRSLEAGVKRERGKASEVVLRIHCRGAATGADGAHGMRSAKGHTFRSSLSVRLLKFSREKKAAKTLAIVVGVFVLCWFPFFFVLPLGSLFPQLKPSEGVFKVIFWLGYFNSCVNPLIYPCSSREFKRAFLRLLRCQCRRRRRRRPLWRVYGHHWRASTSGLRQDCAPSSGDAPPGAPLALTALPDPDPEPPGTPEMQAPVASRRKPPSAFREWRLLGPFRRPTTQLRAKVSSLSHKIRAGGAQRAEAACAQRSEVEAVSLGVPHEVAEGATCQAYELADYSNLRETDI
# [4] = DRUGMATRIX: Serotonin (5-Hydroxytryptamine) 5-HT3 radioligand binding (ligand: [3H] GR-65630); type: cell membranes, Membrane; details: hek293; Not Active = under 50% inhibition at 10 µM
# [5] = DRUGMATRIX: Sodium/nucleoside co-transporter radioligand binding (ligand: nitrobenzylthioinosine); type: cell membranes, Cavia porcellus, Dunkin-Hartley, Cerebral cortex, Membrane; details: Not Active = under 50% inhibition at 10 µM
# [6] = DRUGMATRIX: ATPase, Na+/K+ enzyme inhibition (substrate: ATP); type: tissue-based, Sus scrofa, Heart; details: Not Active = under 50% inhibition at 10 µM
# [7] = biological target: Insulin receptor (Rattus norvegicus, UniProt P15127); type: cell membranes, Wistar, Liver, Membrane; note: in other assays of this panel Not Active means under 50% inhibition at 10 µM
# Sequence of Insulin receptor (P15127 27-759 limits assumed): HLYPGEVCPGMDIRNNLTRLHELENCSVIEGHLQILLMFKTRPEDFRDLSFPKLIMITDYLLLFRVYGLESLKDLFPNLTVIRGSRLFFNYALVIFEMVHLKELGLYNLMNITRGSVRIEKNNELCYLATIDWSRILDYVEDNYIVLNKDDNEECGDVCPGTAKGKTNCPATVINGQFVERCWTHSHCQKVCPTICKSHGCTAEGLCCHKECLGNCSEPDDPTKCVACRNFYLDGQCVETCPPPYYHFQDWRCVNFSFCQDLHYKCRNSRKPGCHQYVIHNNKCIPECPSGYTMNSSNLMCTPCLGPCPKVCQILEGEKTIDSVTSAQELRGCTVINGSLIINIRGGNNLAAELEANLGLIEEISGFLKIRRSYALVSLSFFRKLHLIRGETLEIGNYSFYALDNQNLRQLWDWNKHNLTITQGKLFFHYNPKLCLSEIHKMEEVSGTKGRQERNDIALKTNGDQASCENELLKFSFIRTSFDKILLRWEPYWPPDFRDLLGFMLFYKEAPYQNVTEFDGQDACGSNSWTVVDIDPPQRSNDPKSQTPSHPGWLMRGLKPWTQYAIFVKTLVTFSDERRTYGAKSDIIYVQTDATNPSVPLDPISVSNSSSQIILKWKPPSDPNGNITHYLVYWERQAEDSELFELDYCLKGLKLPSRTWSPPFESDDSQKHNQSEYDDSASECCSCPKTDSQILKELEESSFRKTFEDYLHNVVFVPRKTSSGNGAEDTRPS
# Sequence of Insulin receptor (P15127 764-1383 limits assumed): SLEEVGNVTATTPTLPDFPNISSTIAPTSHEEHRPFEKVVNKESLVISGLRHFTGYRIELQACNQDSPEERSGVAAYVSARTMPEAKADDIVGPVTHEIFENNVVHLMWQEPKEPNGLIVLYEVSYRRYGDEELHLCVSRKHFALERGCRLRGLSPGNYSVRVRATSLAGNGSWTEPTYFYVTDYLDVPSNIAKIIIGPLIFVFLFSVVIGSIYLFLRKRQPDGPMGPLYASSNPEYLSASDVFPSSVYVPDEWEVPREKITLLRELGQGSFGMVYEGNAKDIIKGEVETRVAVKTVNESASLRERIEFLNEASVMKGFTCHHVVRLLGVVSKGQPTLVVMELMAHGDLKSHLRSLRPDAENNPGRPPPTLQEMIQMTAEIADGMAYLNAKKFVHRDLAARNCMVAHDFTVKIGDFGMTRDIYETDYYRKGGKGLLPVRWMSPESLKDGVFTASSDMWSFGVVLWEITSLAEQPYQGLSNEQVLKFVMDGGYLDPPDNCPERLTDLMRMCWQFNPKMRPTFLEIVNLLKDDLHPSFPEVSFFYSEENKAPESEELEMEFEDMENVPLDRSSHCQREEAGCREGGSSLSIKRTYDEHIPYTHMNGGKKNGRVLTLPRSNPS
# Sequence of 5-hydroxytryptamine receptor 6 (P50406 whole entry): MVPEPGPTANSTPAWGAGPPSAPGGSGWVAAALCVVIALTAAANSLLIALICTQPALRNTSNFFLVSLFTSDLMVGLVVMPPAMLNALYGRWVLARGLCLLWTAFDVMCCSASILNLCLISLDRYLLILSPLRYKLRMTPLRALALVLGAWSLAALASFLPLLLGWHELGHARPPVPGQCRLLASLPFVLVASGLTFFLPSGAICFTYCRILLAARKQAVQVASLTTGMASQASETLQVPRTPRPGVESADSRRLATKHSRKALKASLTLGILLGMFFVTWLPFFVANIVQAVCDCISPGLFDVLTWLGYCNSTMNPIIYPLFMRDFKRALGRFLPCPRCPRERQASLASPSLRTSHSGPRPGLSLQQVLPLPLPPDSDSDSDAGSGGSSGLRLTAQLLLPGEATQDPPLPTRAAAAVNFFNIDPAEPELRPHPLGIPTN
Compound,IC50 ([1]; sf9),IC50 ([2]; hela),IC50 ([3]; hek293),IC50 [4],Ki [4],IC50 [5],Ki [5],IC50 [6],Ki [6],IC50 [7],IC50 ([2]; read-out: IC50) [nM],Ki ([2]; read-out: Ki) [nM],IC50 ([1]; read-out: IC50) [nM],Ki ([1]; read-out: Ki) [nM],IC50 ([3]; read-out: IC50) [nM],Ki ([3]; read-out: Ki) [nM],Ki ([1]; sf9),Ki ([2]; hela),Ki ([3]; hek293),Ki [7]
CC(c1cc2ccccc2s1)N(O)C(N)=O (stereo not drawn) [ZILEUTON],Not Active,Not Active,Not Active,Not Active,Not Active,Not Active,Not Active,Not Active,Not Active,Not Active,–,–,–,–,–,–,–,–,–,–
O=C1Nc2ccc(Cl)cc2C(c2ccccc2Cl)=NC1O (stereo not drawn) [LORAZEPAM],Not Active,Not Active,Not Active,Not Active,Not Active,Not Active,Not Active,Not Active,Not Active,Not Active,–,–,–,–,–,–,–,–,–,–
CCN(CC)CCOc1ccc(/C(=C(/Cl)c2ccccc2)c2ccccc2)cc1 [ENCLOMIPHENE],–,–,Not Active,–,–,–,–,–,–,Not Active,1520,707,–,–,–,–,–,–,–,–
CC(C)Cc1ccc([C@@H](C)C(=O)O)cc1 [(R)-IBUPROPHEN],Not Active,Not Active,Not Active,Not Active,Not Active,Not Active,Not Active,Not Active,Not Active,Not Active,–,–,–,–,–,–,–,–,–,–
O=C(Nc1ccc(Br)cc1)c1cc(Br)cc(Br)c1O [TRIBROMSALAN],Not Active,Not Active,Not Active,Not Active,Not Active,Not Active,Not Active,Not Active,Not Active,Not Active,–,–,–,–,–,–,–,–,–,–
CN(C/C=C/C#CC(C)(C)C)Cc1cccc2ccccc12 [TERBINAFINE],–,Not Active,Not Active,Not Active,Not Active,Not Active,Not Active,Not Active,Not Active,Not Active,–,–,5700,2140,–,–,–,–,–,–
Cn1c(=O)c2nc[nH]c2n(C)c1=O.O [THEOPHYLLINE],Not Active,Not Active,Not Active,Not Active,Not Active,Not Active,Not Active,Not Active,Not Active,Not Active,–,–,–,–,–,–,–,–,–,–
CC(C)NCC(O)c1ccc(NS(C)(=O)=O)cc1 (stereo not drawn) [SOTALOL],Not Active,Not Active,Not Active,Not Active,Not Active,Not Active,Not Active,Not Active,Not Active,Not Active,–,–,–,–,–,–,–,–,–,–
CO[C@@H]1[C@@H](OC)[C@H](C)[C@@](O)(CC(=O)O)O[C@H]1[C@H](C)[C@H]1O[C@@]2(CC[C@@](C)([C@H]3CC[C@@](C)([C@@H]4O[C@@H]([C@H]5O[C@](C)(O)[C@H](C)C[C@@H]5C)C[C@@H]4O[C@@H]4C[C@H](OC)[C@@H](OC)[C@H](C)O4)O3)O2)C[C@H](O)[C@H]1C [MADURAMICIN ACID],–,–,–,Not Active,Not Active,Not Active,Not Active,Not Active,Not Active,Not Active,1.7,0.789,180,67,1130,554,–,–,–,–
SODIUM ORTHOVANAD,Not Active,Not Active,Not Active,Not Active,Not Active,Not Active,Not Active,–,–,Not Active,–,–,–,–,–,–,Not Active,Not Active,Not Active,Not Active
Cc1cccc(C)c1OCC(C)N (stereo not drawn) [MEXILETINE],Not Active,Not Active,Not Active,Not Active,Not Active,Not Active,Not Active,Not Active,Not Active,Not Active,–,–,–,–,–,–,–,–,–,–
CC(C)NCC(O)c1ccc(O)c(O)c1 (stereo not drawn) [ISOPROTERENOL],Not Active,Not Active,Not Active,Not Active,Not Active,Not Active,Not Active,Not Active,Not Active,Not Active,–,–,–,–,–,–,–,–,–,–
NC1CCN(c2nc3c(cc2F)c(=O)c(C(=O)O)cn3-c2ccc(F)cc2F)C1 (stereo not drawn) [TOSUFLOXACIN],Not Active,Not Active,Not Active,Not Active,Not Active,Not Active,Not Active,Not Active,Not Active,Not Active,–,–,–,–,–,–,–,–,–,–
COc1ccc(CCN(C)CCCC(C#N)(c2ccc(OC)c(OC)c2)C(C)C)cc1OC (stereo not drawn),–,Not Active,Not Active,Not Active,Not Active,Not Active,Not Active,Not Active,Not Active,Not Active,–,–,–,–,–,–,–,–,–,–
CN[C@H]1CC[C@@H](c2ccc(Cl)c(Cl)c2)c2ccccc21 [SERTRALINE],–,Not Active,Not Active,–,–,–,–,–,–,Not Active,–,–,–,–,–,–,–,–,–,–
O=C(Oc1ccccc1C(=O)O)c1ccccc1O [SALSALATE],Not Active,Not Active,Not Active,Not Active,Not Active,Not Active,Not Active,Not Active,Not Active,Not Active,–,–,–,–,–,–,–,–,–,–
NC(=O)N1C(=O)/C(=C(\O)c2cccs2)c2cc(Cl)ccc21 [TENIDAP],Not Active,Not Active,Not Active,Not Active,Not Active,Not Active,Not Active,Not Active,Not Active,Not Active,–,–,–,–,–,–,–,–,–,–
O=C1C(CC[S+]([O-])c2ccccc2)C(=O)N(c2ccccc2)N1c1ccccc1 (stereo not drawn) [SULFINPYRAZONE],Not Active,Not Active,Not Active,Not Active,Not Active,Not Active,Not Active,Not Active,Not Active,Not Active,–,–,–,–,–,–,–,–,–,–
C[C@H]1C[C@@H]2[C@H]([C@@H](O)C[C@@]3(C)[C@H]2CC[C@]3(O)C(=O)CO)[C@@]2(C)C=CC(=O)C=C12 [METHYLPREDNISOLONE],Not Active,Not Active,Not Active,Not Active,Not Active,Not Active,Not Active,Not Active,Not Active,Not Active,–,–,–,–,–,–,–,–,–,–
Fc1ccc(C(c2ccc(F)cc2)N2CCN(C/C=C/c3ccccc3)CC2)cc1 [FLUNARIZINE],–,Not Active,–,–,–,–,–,–,–,Not Active,–,–,581,218,1080,533,–,–,–,–
CN(C)CCOC(c1ccccc1)c1ccccc1 [DIPHENHYDRAMINE],Not Active,Not Active,Not Active,–,–,–,–,–,–,Not Active,–,–,–,–,–,–,–,–,–,–
CNCCC(Oc1ccc(C(F)(F)F)cc1)c1ccccc1 (stereo not drawn) [FLUOXETINE],Not Active,–,Not Active,–,–,–,–,–,–,Not Active,–,–,–,–,–,–,–,–,–,–
Cc1ccc(NC(=O)c2ccc(CN3CCN(C)CC3)cc2)cc1Nc1nccc(-c2cccnc2)n1 [IMATINIB],Not Active,Not Active,Not Active,–,–,–,–,–,–,Not Active,–,–,–,–,–,–,–,–,–,–
Clc1ccc(COC(Cn2ccnc2)c2ccc(Cl)cc2Cl)cc1 (stereo not drawn) [ECONAZOLE],–,–,–,–,–,–,–,–,–,Not Active,10900,5060,–,–,8900,4370,–,–,–,–
Clc1ccccc1CN1CCc2sccc2C1 [TICLOPIDINE],–,Not Active,Not Active,Not Active,Not Active,Not Active,Not Active,Not Active,Not Active,Not Active,–,–,–,–,–,–,–,–,–,–
